Like-named read-outs stand apart in the source and are kept apart here.
Assays:
[1] = tested on: LDH (Lactate dehydrogenase)
Source text: Further, we have analyzed the secretion of LDH (Lactate dehydrogenase) enzyme to media as a representative necrosis biomarker.

[2] = tested on: MDA-MB-231 breast cancer cell line; details: flow cytometry
Source text: (§1) Further, we have investigated the cell cycles of MDA-MB-231 breast cancer cell line through Flow cytometry analysis.

cyclin B1 expression = details: western blot; G2/M phase
Source text: as §1

[3] = tested on: MDA-MB-231 triple negative breast cancer cells
Source text: After implanting MDA-MB-231 triple negative breast cancer cells to the nude mouse, the tumor has been grown to the 200 mm^3 volume.
The tumor volume and shape in the nude mouse have been observed for 24 days.

[4] = tested on: A549 human non-small cell lung cancer cells; details: cited from earlier work
[5] = tested on: triple negative cell lines; details: 7 of 10 types of triple negative cell lines
[6] = tested on: KB oral cavity cancer cells
Method: The tumor has been grown after injecting KB oral cavity cancer cells (10×10^6 cells/0.1 ml of non-serum matrigel medium) to the nude mouse. […] The tumor growth has been observed for 28 days.
The tumor volume and shape in the nude mouse have been observed for 28 days.

[7] = tested on: MDA-MB-231 triple negative breast cancer cells; remark: listed apart in the source
Source text: After implanting MDA-MB-231 triple negative breast cancer cells to the nude mouse, the tumor has been grown to the 200 mm^3 volume. […] The tumor growth has been observed for 27 days.
The tumor volume and shape in the nude mouse have been observed for 27 days.

For `O=C1Nc2ccc([N+](=O)[O-])cc2C1=C1Nc2ccc(O)cc2C1=NO` [AGM-130, (2′Z 3′E)-5′-hydroxy-5-nitro indirubin oxime], the “apoptosis and necrosis (LDH secretion)” value [1] was “apoptosis and necrosis have been induced at the same time”, the cell cycle phases [2] was “decreased G1 phase and increased G2/M phase” and the “cyclin B1 expression” value (cyclin B1 expression) was “remarkably reduced”. For the same molecule, the “tumor volume reduction compared to control group” value (“tumor volume reduction” for short) ([3]; 3 mg/kg intravenously) was “about 31%”, the volume of tumor ([3]; 3 mg/kg intravenously once a week, day 0) was 341.5 ± 14.4 and the volume of tumor ([3]; 3 mg/kg intravenously once a week, day 3) was 474.6 ± 26.4. It also gave a volume of tumor ([3]; 3 mg/kg intravenously once a week, day 6) of 602.5 ± 44.1, a volume of tumor ([3]; 3 mg/kg intravenously once a week, day 9) of 693.1 ± 61.0 and a volume of tumor ([3]; 3 mg/kg intravenously once a week, day 12) of 838.0 ± 79.9. The volume of tumor ([3]; 3 mg/kg intravenously once a week, day 15) was 996.9 ± 79.9, the volume of tumor ([3]; 3 mg/kg intravenously once a week, day 18) was 1217.5 ± 81.8 and the volume of tumor ([3]; 3 mg/kg intravenously once a week, day 21) was 1398.0 ± 78.1. The volume of tumor ([3]; 3 mg/kg intravenously once a week, day 24) was 1871.4 ± 175.5, the “tumor volume reduction” value ([3]; 7 mg/kg intravenously) was “about 47%” and the volume of tumor ([3]; 7 mg/kg intravenously once a week, day 0) was 355.4 ± 10.7. It also gave a volume of tumor ([3]; 7 mg/kg intravenously once a week, day 3) of 451.9 ± 10.2, a volume of tumor ([3]; 7 mg/kg intravenously once a week, day 6) of 543.4 ± 10.9 and a volume of tumor ([3]; 7 mg/kg intravenously once a week, day 9) of 615.5 ± 19.0. The volume of tumor ([3]; 7 mg/kg intravenously once a week, day 12) was 651.0 ± 47.1, the volume of tumor ([3]; 7 mg/kg intravenously once a week, day 15) was 677.9 ± 46.7 and the volume of tumor ([3]; 7 mg/kg intravenously once a week, day 18) was 899.6 ± 59.6. The volume of tumor ([3]; 7 mg/kg intravenously once a week, day 21) was 1108.9 ± 88.1, the volume of tumor ([3]; 7 mg/kg intravenously once a week, day 24) was 1436.1 ± 84.8 and the “tumor volume reduction” value ([3]; 14 mg/kg intravenously) was “about 61%”. For the same molecule, the volume of tumor ([3]; 14 mg/kg intravenously once a week, day 0) was 342.1 ± 20.7, the volume of tumor ([3]; 14 mg/kg intravenously once a week, day 3) was 408.5 ± 10.3 and the volume of tumor ([3]; 14 mg/kg intravenously once a week, day 6) was 470.8 ± 20.4. It also gave a volume of tumor ([3]; 14 mg/kg intravenously once a week, day 9) of 525.4 ± 35.6, a volume of tumor ([3]; 14 mg/kg intravenously once a week, day 12) of 535.3 ± 39.0 and a volume of tumor ([3]; 14 mg/kg intravenously once a week, day 15) of 581.5 ± 44.8. For the same molecule, the volume of tumor ([3]; 14 mg/kg intravenously once a week, day 18) was 696.1 ± 54.6, the volume of tumor ([3]; 14 mg/kg intravenously once a week, day 21) was 831.0 ± 75.1 and the volume of tumor ([3]; 14 mg/kg intravenously once a week, day 24) was 1064.3 ± 39.8. For the same molecule, the weight of tumor ([3]; intravenously, FIG. 6) was “dose-dependently reduced”, the cell cycle [4] was “arrests the cell cycle of G2/M phase” and the proliferation [4] was “significantly inhibits the proliferation”. For the same molecule, the IC50 [5] was less than 1000 nM, the volume of tumor ([6]; 5/10/20 mg/kg intraperitoneally every other day, FIG. 11) was “cannot be reduced significantly” and the “reduction of volume of tumor compared to paclitaxel” value ([6]; paclitaxel 10 mg/kg positive control) was “cannot result in significant reduction”. For the same molecule, the “tumor volume reduction” value ([7]; 10 mg/kg intraperitoneally) was “about 40%”, the “volume of tumor, Mean ± S.E.” value ([7]; 10 mg/kg intraperitoneally twice a week, day 0) was 268.0 ± 6.1 and the “volume of tumor, Mean ± S.E.” value ([7]; 10 mg/kg intraperitoneally twice a week, day 3) was 369.7 ± 5.0. For the same molecule, the “volume of tumor, Mean ± S.E.” value ([7]; 10 mg/kg intraperitoneally twice a week, day 6) was 474.3 ± 6.6, the “volume of tumor, Mean ± S.E.” value ([7]; 10 mg/kg intraperitoneally twice a week, day 9) was 634.9 ± 36.2 and the “volume of tumor, Mean ± S.E.” value ([7]; 10 mg/kg intraperitoneally twice a week, day 12) was 813.5 ± 29.0. The “volume of tumor, Mean ± S.E.” value ([7]; 10 mg/kg intraperitoneally twice a week, day 15) was 985.6 ± 44.8, the “volume of tumor, Mean ± S.E.” value ([7]; 10 mg/kg intraperitoneally twice a week, day 18) was 1095.7 ± 54.2 and the “volume of tumor, Mean ± S.E.” value ([7]; 10 mg/kg intraperitoneally twice a week, day 21) was 1119.8 ± 57.7. For the same molecule, the “volume of tumor, Mean ± S.E.” value ([7]; 10 mg/kg intraperitoneally twice a week, day 24) was 1242.1 ± 76.0, the “volume of tumor, Mean ± S.E.” value ([7]; 10 mg/kg intraperitoneally twice a week, day 27) was 1484.9 ± 86.8 and the “tumor volume reduction” value ([7]; 20 mg/kg intraperitoneally) was “about 64%”. For the same molecule, the “volume of tumor, Mean ± S.E.” value ([7]; 20 mg/kg intraperitoneally twice a week, day 0) was 248.0 ± 11.0, the “volume of tumor, Mean ± S.E.” value ([7]; 20 mg/kg intraperitoneally twice a week, day 3) was 295.4 ± 22.0 and the “volume of tumor, Mean ± S.E.” value ([7]; 20 mg/kg intraperitoneally twice a week, day 6) was 364.9 ± 23.5. For the same molecule, the “volume of tumor, Mean ± S.E.” value ([7]; 20 mg/kg intraperitoneally twice a week, day 9) was 457.4 ± 47.3, the “volume of tumor, Mean ± S.E.” value ([7]; 20 mg/kg intraperitoneally twice a week, day 12) was 559.5 ± 56.2 and the “volume of tumor, Mean ± S.E.” value ([7]; 20 mg/kg intraperitoneally twice a week, day 15) was 623.4 ± 51.5. The “volume of tumor, Mean ± S.E.” value ([7]; 20 mg/kg intraperitoneally twice a week, day 18) was 668.5 ± 56.8, the “volume of tumor, Mean ± S.E.” value ([7]; 20 mg/kg intraperitoneally twice a week, day 21) was 767.2 ± 106.7 and the “volume of tumor, Mean ± S.E.” value ([7]; 20 mg/kg intraperitoneally twice a week, day 24) was 833.1 ± 139.7. The “volume of tumor, Mean ± S.E.” value ([7]; 20 mg/kg intraperitoneally twice a week, day 27) was 894.2 ± 151.6, the “tumor volume reduction” value ([7]; 40 mg/kg intraperitoneally) was “about 70%” and the “volume of tumor, Mean ± S.E.” value ([7]; 40 mg/kg intraperitoneally twice a week, day 0) was 253.1 ± 8.5. For the same molecule, the “volume of tumor, Mean ± S.E.” value ([7]; 40 mg/kg intraperitoneally twice a week, day 3) was 313.3 ± 9.7, the “volume of tumor, Mean ± S.E.” value ([7]; 40 mg/kg intraperitoneally twice a week, day 6) was 327.5 ± 19.1 and the “volume of tumor, Mean ± S.E.” value ([7]; 40 mg/kg intraperitoneally twice a week, day 9) was 372.4 ± 8.3. For the same molecule, the “volume of tumor, Mean ± S.E.” value ([7]; 40 mg/kg intraperitoneally twice a week, day 12) was 444.8 ± 7.3, the “volume of tumor, Mean ± S.E.” value ([7]; 40 mg/kg intraperitoneally twice a week, day 15) was 481.9 ± 39.1 and the “volume of tumor, Mean ± S.E.” value ([7]; 40 mg/kg intraperitoneally twice a week, day 18) was 532.7 ± 27.6. For the same molecule, the “volume of tumor, Mean ± S.E.” value ([7]; 40 mg/kg intraperitoneally twice a week, day 21) was 620.1 ± 45.2, the “volume of tumor, Mean ± S.E.” value ([7]; 40 mg/kg intraperitoneally twice a week, day 24) was 686.2 ± 85.6 and the “volume of tumor, Mean ± S.E.” value ([7]; 40 mg/kg intraperitoneally twice a week, day 27) was 730.8 ± 73.9. The “tumor volume reduction” value ([7]; control group paclitaxel (5 mg/kg)) was “about 14%”.
